This passage reports IC50 results from patent US12440484B2, “1,3,4-oxadiazole homophthalimide derivative compounds as histone deacetylase 6 inhibitor, and the pharmaceutical composition comprising the same” (Chong Kun Dang Pharmaceutical Corp., priority 2019, dated 2025).

SMILES strings stand for the structures. A value given as a limit tells only on which side of the number the result lay.

One assay deals with HDAC1 (Homo sapiens (Human), UniProt Q13547). Briefly: HDAC enzyme activity inhibition (in vitro), HDAC1 Fluorimetric Drug Discovery Assay Kit. The class given is biochemical. The conditions noted are these: samples at 100, 1000 and 10000 nM; 37° C. 60 minutes; fluorescence Ex 390, Em 460.
The target of the next assay is HDAC6 human recombinant (Homo sapiens (Human), UniProt Q9UBN7). Briefly: HDAC enzyme activity inhibition (in vitro), HDAC6 assay. The class given is biochemical. The conditions noted are these: samples at 0.1, 1, 10, 100 and 1000 nM; 37° C. 60 minutes; fluorescence Ex 390, Em 460.
HDAC6 human recombinant, sequence (Q9UBN7 whole entry): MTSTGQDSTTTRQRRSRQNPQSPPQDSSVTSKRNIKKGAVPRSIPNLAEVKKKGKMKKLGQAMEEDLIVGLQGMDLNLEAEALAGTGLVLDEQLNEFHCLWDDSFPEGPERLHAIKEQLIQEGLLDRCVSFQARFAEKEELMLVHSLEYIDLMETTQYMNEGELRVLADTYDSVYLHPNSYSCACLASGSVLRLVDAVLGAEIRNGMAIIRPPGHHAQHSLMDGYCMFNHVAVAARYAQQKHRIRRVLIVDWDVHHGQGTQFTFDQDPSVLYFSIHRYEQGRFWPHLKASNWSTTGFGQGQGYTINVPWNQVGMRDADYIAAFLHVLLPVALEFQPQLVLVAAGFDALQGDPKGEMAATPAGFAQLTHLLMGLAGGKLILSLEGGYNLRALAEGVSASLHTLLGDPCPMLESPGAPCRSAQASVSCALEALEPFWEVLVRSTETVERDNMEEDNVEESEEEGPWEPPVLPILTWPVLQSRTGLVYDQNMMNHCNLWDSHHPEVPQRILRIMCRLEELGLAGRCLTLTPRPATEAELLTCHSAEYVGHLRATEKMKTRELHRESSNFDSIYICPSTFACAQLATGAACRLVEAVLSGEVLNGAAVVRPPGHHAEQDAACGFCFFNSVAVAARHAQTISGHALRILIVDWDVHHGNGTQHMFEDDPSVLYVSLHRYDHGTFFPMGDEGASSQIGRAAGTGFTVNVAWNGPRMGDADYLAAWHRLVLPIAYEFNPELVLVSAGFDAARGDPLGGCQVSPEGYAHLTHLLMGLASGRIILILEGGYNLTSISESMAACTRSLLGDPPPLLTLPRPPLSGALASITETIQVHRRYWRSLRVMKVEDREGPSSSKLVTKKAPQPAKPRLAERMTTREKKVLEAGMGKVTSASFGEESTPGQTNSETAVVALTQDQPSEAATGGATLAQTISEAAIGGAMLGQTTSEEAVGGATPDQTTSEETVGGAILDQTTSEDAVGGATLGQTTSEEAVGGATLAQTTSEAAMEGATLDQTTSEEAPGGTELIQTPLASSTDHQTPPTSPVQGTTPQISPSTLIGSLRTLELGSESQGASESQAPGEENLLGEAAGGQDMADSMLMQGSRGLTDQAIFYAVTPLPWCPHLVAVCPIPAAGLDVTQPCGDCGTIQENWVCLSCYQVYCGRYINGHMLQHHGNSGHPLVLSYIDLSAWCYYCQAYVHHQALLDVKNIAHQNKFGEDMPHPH

HDAC1, sequence (Q13547 whole entry): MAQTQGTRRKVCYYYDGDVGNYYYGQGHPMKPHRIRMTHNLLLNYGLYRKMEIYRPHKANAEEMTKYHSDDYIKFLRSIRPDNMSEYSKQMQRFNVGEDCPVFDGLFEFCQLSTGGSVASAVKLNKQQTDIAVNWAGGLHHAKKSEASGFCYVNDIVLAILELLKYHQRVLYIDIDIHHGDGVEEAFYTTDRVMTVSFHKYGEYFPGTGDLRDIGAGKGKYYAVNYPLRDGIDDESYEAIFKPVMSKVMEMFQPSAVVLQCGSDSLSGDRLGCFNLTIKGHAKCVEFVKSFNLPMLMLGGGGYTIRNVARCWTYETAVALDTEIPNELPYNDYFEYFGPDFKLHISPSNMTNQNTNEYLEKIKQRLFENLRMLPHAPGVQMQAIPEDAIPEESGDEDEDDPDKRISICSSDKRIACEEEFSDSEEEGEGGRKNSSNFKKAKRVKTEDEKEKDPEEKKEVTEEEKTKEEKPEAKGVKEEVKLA

The term IC50 denotes the concentration that inhibits the measured activity by half. As for `CC1(C)C(=O)N(Cc2ccc(-c3nnc(C(F)F)o3)cn2)C(=O)c2cc(C3CCN(C4CCC4)CC3)ccc21` [Compound 145, 7-(1-cyclobutylpiperidine-4-yl)-2-((5-(5-(difluoromethyl)-1,3,4-oxadiazole-2-yl)pyridine-2-yl)methyl)-4,4-dimethylisoquinoline-1,3(2H,4H)-dione], the results for the IC50 against HDAC1 and on HDAC6 human recombinant were above 10000 nM and 37 nM, respectively.

As for `CN(C)C1CCN(c2ccc3c(c2)C(C)(C)C(=O)N(Cc2ccc(-c4nnc(C(F)F)o4)cn2)C3=O)CC1` [Compound 37, 2-((5-(5-(difluoromethyl)-1,3,4-oxadiazole-2-yl)pyridine-2-yl)methyl)-6-(4-(dimethylamino)piperidine-1-yl)-4,4-dimethylisoquinoline-1,3(2H,4H)-dione], the IC50 against HDAC1 is above 10000 nM; at HDAC6 human recombinant, 15 nM.

Regarding `CC(C)N1CC=C(c2ccc3c(=O)n(Cc4ccc(-c5nnc(C(F)F)o5)cn4)c(=O)n(C)c3c2)CC1` [Compound 124, 3-((5-(5-(difluoromethyl)-1,3,4-oxadiazole-2-yl)pyridine-2-yl)methyl)-7-(1-isopropyl-1,2,3,6-tetrahydropyridine-4-yl)-1-methylquinazoline-2,4(1H,3H)-dione], the IC50 against HDAC1 is above 10000 nM; on HDAC6 human recombinant it was 38 nM.

For `CC1(C)C(=O)N(Cc2ncc(-c3nnc(C(F)F)o3)cn2)C(=O)c2ccc(Br)cc21` [Compound 152, 6-bromo-2-((5-(5-(difluoromethyl)-1,3,4-oxadiazole-2-yl)pyrimidine-2-yl)methyl)-4,4-dimethylisoquinoline-1,3(2H,4H)-dione], the figures for the IC50 against HDAC1 and at HDAC6 human recombinant were above 10000 nM and 125 nM, respectively.

On to `CC1(C)C(=O)N(Cc2ccc(-c3nnc(C(F)F)o3)cn2)C(=O)c2cc(C3=CCS(=N)(=O)CC3)ccc21` (stereo not shown) [Compound 126, 2-((5-(5-(difluoromethyl)-1,3,4-oxadiazole-2-yl)pyridine-2-yl)methyl)-7-(1-imino-1-oxydo-1,2,3,6-tetrahydro-1λ^6-thiopyran-4-yl)-4,4-dimethylisoquinoline-1,3(2H,4H)-dione], for which the IC50 against HDAC1 was above 10000 nM; on HDAC6 human recombinant, 32 nM.

Take `CC(C)N1CCC(c2ccc3c(c2)C(C)(C)C(=O)N(Cc2ccc(-c4nnc(C(F)F)o4)cn2)C3=O)CC1` [Compound 60, 2-((5-(5-(difluoromethyl)-1,3,4-oxadiazole-2-yl)pyridine-2-yl)methyl)-6-(1-isopropylpiperidine-4-yl)-4,4-dimethylisoquinoline-1,3(2H,4H)-dione]: the IC50 against HDAC1 was above 10000 nM; at HDAC6 human recombinant, 22 nM.

As to `O=C1c2ccc(Br)cc2C2(CCCCC2)C(=O)N1Cc1ccc(-c2nnc(C(F)F)o2)cn1` [Compound 107, 6′-bromo-2′-((5-(5-(difluoromethyl)-1,3,4-oxadiazole-2-yl)pyridine-2-yl)methyl)-1′H-spiro[cyclohexane-1,4′-isoquinoline]-1′,3′(2′H)-dione], the values for the IC50 against HDAC1 and at HDAC6 human recombinant were above 10000 nM and 148 nM, respectively.

As for `O=c1c2ccccc2n(CCn2cccn2)c(=O)n1Cc1ccc(-c2nnc(C(F)F)o2)cn1` [Compound 21, 1-(2-(1H-pyrazole-1-yl)ethyl)-3-((5-(5-(difluoromethyl)-1,3,4-oxadiazole-2-yl)pyridine-2-yl)methyl)quinazoline-2,4(1H,3H)-dione], the IC50 is above 10000 nM against HDAC1 and 273 nM at HDAC6 human recombinant.

In the case of `Cn1c(=O)n(Cc2ccc(-c3nnc(C(F)F)o3)cn2)c(=O)c2cc(-c3cccc(F)c3)ccc21` [Compound 90, 3-((5-(5-(difluoromethyl)-1,3,4-oxadiazole-2-yl)pyridine-2-yl)methyl)-6-(3-fluorophenyl)-1-methylquinazoline-2,4(1H,3H)-dione], the IC50 on HDAC1 was above 10000 nM; on HDAC6 human recombinant it was 41 nM.

Regarding `O=c1c2ccccc2n(CC2CCN(C3COC3)CC2)c(=O)n1Cc1ccc(-c2nnc(C(F)F)o2)cn1` [Compound 16, 3-((5-(5-(difluoromethyl)-1,3,4-oxadiazole-2-yl)pyridine-2-yl)methyl)-1-((1-(oxetan-3-yl)piperidine-4-yl)methyl)quinazoline-2,4(1H,3H)-dione], the IC50 against HDAC1 is above 10000 nM; at HDAC6 human recombinant it was 257 nM.

For `CCC1(CC)C(=O)N(Cc2ccc(-c3nnc(C(F)F)o3)cn2)C(=O)c2ccc(N3CCN(C(C)=O)CC3)cc21` [Compound 136, 6-(4-acetylpiperazine-1-yl)-2-((5-(5-(difluoromethyl)-1,3,4-oxadiazole-2-yl)pyridine-2-yl)methyl)-4,4-diethylisoquinoline-1,3(2H,4H)-dione], the IC50 against HDAC1 is above 10000 nM; at HDAC6 human recombinant it was 55 nM.

Turning to `CC1(C)C(=O)N(Cc2ccc(-c3nnc(C(F)F)o3)cn2)C(=O)c2cc(C3CCN(C(=O)CO)CC3)ccc21` [Compound 134, 2-((5-(5-(difluoromethyl)-1,3,4-oxadiazole-2-yl)pyridine-2-yl)methyl)-7-(1-(2-hydroxyacetyl)piperidine-4-yl)-4,4-dimethylisoquinoline-1,3(2H,4H)-dione], the IC50 was above 10000 nM against HDAC1 and 12 nM on HDAC6 human recombinant.

Turning to `CC1(C)C(=O)N(Cc2ccc(-c3nnc(C(F)F)o3)cn2)C(=O)c2ccc(C3CCN(C4CC5(COC5)C4)CC3)cc21` [Compound 63, 6-(1-(2-oxaspiro[3.3]heptane-6-yl)piperidine-4-yl)-2-((5-(5-(difluoromethyl)-1,3,4-oxadiazole-2-yl)pyridine-2-yl)methyl)-4,4-dimethylisoquinoline-1,3(2H,4H)-dione], the IC50 against HDAC1 was above 10000 nM; at HDAC6 human recombinant it was 33 nM.

For `CC1(C)C(=O)N(Cc2ccc(-c3nnc(C(F)F)o3)cn2)C(=O)c2ccc(C3CCN(CC4CCOCC4)CC3)cc21` [Compound 62, 2-((5-(5-(difluoromethyl)-1,3,4-oxadiazole-2-yl)pyridine-2-yl)methyl)-4,4-dimethyl-6-(1-((tetrahydro-2H-pyran-4-yl)methyl)piperidine-4-yl)isoquinoline-1,3(2H,4H)-dione], the IC50 against HDAC1 was above 10000 nM; on HDAC6 human recombinant, 61 nM.

For the compound `CC1(C)C(=O)N(Cc2ccc(-c3nnc(C(F)F)o3)cn2)C(=O)c2ccccc21` [Compound 8, 2-((5-(5-(difluoromethyl)-1,3,4-oxadiazole-2-yl)pyridine-2-yl)methyl)-4,4-dimethylisoquinoline-1,3(2H,4H)-dione], the figures for the IC50 against HDAC1 and at HDAC6 human recombinant were above 10000 nM and 30 nM, respectively.

For `CC1(C)C(=O)N(Cc2ccc(-c3nnc(C(F)F)o3)cn2)C(=O)c2ccc(N3CC(F)(F)C3)cc21` [Compound 49, 6-(3,3-difluoroazetidine-1-yl)-2-((5-(5-(difluoromethyl)-1,3,4-oxadiazole-2-yl)pyridine-2-yl)methyl)-4,4-dimethylisoquinoline-1,3(2H,4H)-dione], the IC50 is above 10000 nM against HDAC1 and 41 nM at HDAC6 human recombinant.

Take `Cn1c(=O)n(Cc2ccc(-c3nnc(C(F)F)o3)cn2)c(=O)c2ccc(-c3ccccc3F)cc21` [Compound 99, 3-((5-(5-(difluoromethyl)-1,3,4-oxadiazole-2-yl)pyridine-2-yl)methyl)-7-(2-fluorophenyl)-1-methylquinazoline-2,4(1H,3H)-dione]: the IC50 was above 10000 nM against HDAC1 and 149 nM on HDAC6 human recombinant.
